Reference: patent publication USRE42890E1, “Furazanobenzimidazoles” (Basilea Pharmaceutica AG, priority 2003, dated 2011)
Read-outs that look alike come from different tables or passages of the source.

Assays:
MRC5 = assay: MTS proliferation assay, MRC5; format: cell-based; conditions: MRC5, 72 h incubation, read-out: MTS proliferation assay IC 50 MRC5
In short: (§1)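 Antiproliferative read-out by MTS (3 h, A492) after 72 h compound exposure at final 0.3–10 μM (four concentrations). Cells were plated 24 h earlier in RPMI-1640 containing 5% or 10% FCS, cultured at 37 °C with 7.5% CO2.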

HT1080 = assay: MTS proliferation assay, HT1080; format: cell-based, human; conditions: HT1080, 72 h incubation, read-out: MTS proliferation assay IC 50 HT1080
In short: (§2)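 Absorbance at 492 nm after 3 h with MTS reagent gave proliferation. This followed 72 h compound exposure (final 0.3, 1, 3, 10 μM) at 37 °C and 7.5% CO2. Cells had been plated 24 h earlier in complete RPMI-1640 with 5% or 10% FCS.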

Jurkat = assay: MTS proliferation assay, Jurkat; format: cell-based, human; conditions: 72 h incubation, read-out: MTS proliferation assay IC 50 Jurkat
In short: as §2

Jily = assay: MTS proliferation assay, Jily; format: cell-based; conditions: 72 h incubation, read-out: MTS proliferation assay IC 50 Jily
In short: as §1

HeLa = assay: MTS proliferation assay, HeLa; format: cell-based, human; conditions: 72 h incubation, read-out: MTS proliferation assay IC 50 HeLa
In short: as §2

[1] = test system: adherent cells or suspension cells; assay: Hoechst 33342 nuclear staining (fraction of apoptotic nuclei); format: cell-based; set-up: key: 0 relating to no activity; 1 relating to weak activity comprising less than 70% of the cells; score 2 relating to strong activity comprising more than 70% of the cells

Nc1nonc1-c1nc2ccccc2n1CC(=O)c1ccc(Cl)nc1 [Example 70]
IC50 (MRC5): < 10 nM | IC50 (HT1080): < 10 nM | IC50 (Jurkat): < 10 nM | IC50 (Jily): < 10 nM | IC50 (HeLa): < 10 nM | Hoechst 33342 nuclear staining score ([1]; H460, conc 0.01 μm): 1 (1 relating to weak activity comprising less than 70% of the cells) | Hoechst 33342 nuclear staining score ([1]; H460, conc 0.1 μm): 2 (score 2 relating to strong activity comprising more than 70% of the cells) | Hoechst 33342 nuclear staining score ([1]; H460, conc 1 μm): 2 (score 2 relating to strong activity comprising more than 70% of the cells) | Hoechst 33342 nuclear staining score ([1]; HeLa, conc 0.01 μm): 0 | Hoechst 33342 nuclear staining score ([1]; HeLa, conc 0.1 μm): 2 (score 2 relating to strong activity comprising more than 70% of the cells) | Hoechst 33342 nuclear staining score ([1]; HeLa, conc 1 μm): 2 (score 2 relating to strong activity comprising more than 70% of the cells) | Hoechst 33342 nuclear staining score ([1]; Jily, conc 0.01 μm): 2 (score 2 relating to strong activity comprising more than 70% of the cells) | Hoechst 33342 nuclear staining score ([1]; Jily, conc 0.1 μm): 2 (score 2 relating to strong activity comprising more than 70% of the cells) | Hoechst 33342 nuclear staining score ([1]; Jily, conc 1 μm): 2 (score 2 relating to strong activity comprising more than 70% of the cells) | Hoechst 33342 nuclear staining score ([1]; Jurkat, conc 0.01 μm): 2 (score 2 relating to strong activity comprising more than 70% of the cells) | Hoechst 33342 nuclear staining score ([1]; Jurkat, conc 0.1 μm): 2 (score 2 relating to strong activity comprising more than 70% of the cells) | Hoechst 33342 nuclear staining score ([1]; Jurkat, conc 1 μm): 2 (score 2 relating to strong activity comprising more than 70% of the cells) | Hoechst 33342 nuclear staining score ([1]; MRC5, conc 0.01 μm): 1 (1 relating to weak activity comprising less than 70% of the cells) | Hoechst 33342 nuclear staining score ([1]; MRC5, conc 0.1 μm): 2 (score 2 relating to strong activity comprising more than 70% of the cells) | Hoechst 33342 nuclear staining score ([1]; MRC5, conc 1 μm): 2 (score 2 relating to strong activity comprising more than 70% of the cells) | Hoechst 33342 nuclear staining score ([1]; PBLs, conc 0.01 μm): 0 | Hoechst 33342 nuclear staining score ([1]; PBLs, conc 0.1 μm): 0 | Hoechst 33342 nuclear staining score ([1]; PBLs, conc 1 μm): 0

Nc1nonc1-c1nc2ccccc2n1CC(=O)c1cccs1 [Example 72]
IC50 (MRC5): 100 to 1000 nM | IC50 (HT1080): 100 to 1000 nM | IC50 (Jurkat): 100 to 1000 nM | IC50 (Jily): 100 to 1000 nM | IC50 (HeLa): 100 to 1000 nM | Hoechst 33342 nuclear staining score ([1]; H460, conc 0.01 μm): 0 | Hoechst 33342 nuclear staining score ([1]; H460, conc 0.1 μm): 0 | Hoechst 33342 nuclear staining score ([1]; H460, conc 1 μm): 2 (score 2 relating to strong activity comprising more than 70% of the cells) | Hoechst 33342 nuclear staining score ([1]; HeLa, conc 0.01 μm): 0 | Hoechst 33342 nuclear staining score ([1]; HeLa, conc 0.1 μm): 0 | Hoechst 33342 nuclear staining score ([1]; HeLa, conc 1 μm): 2 (score 2 relating to strong activity comprising more than 70% of the cells) | Hoechst 33342 nuclear staining score ([1]; Jily, conc 0.01 μm): 0 | Hoechst 33342 nuclear staining score ([1]; Jily, conc 0.1 μm): 0 | Hoechst 33342 nuclear staining score ([1]; Jily, conc 1 μm): 2 (score 2 relating to strong activity comprising more than 70% of the cells) | Hoechst 33342 nuclear staining score ([1]; Jurkat, conc 0.01 μm): 0 | Hoechst 33342 nuclear staining score ([1]; Jurkat, conc 0.1 μm): 1 (1 relating to weak activity comprising less than 70% of the cells) | Hoechst 33342 nuclear staining score ([1]; Jurkat, conc 1 μm): 2 (score 2 relating to strong activity comprising more than 70% of the cells) | Hoechst 33342 nuclear staining score ([1]; MRC5, conc 0.01 μm): 0 | Hoechst 33342 nuclear staining score ([1]; MRC5, conc 0.1 μm): 0 | Hoechst 33342 nuclear staining score ([1]; MRC5, conc 1 μm): 0 | Hoechst 33342 nuclear staining score ([1]; PBLs, conc 0.01 μm): 0 | Hoechst 33342 nuclear staining score ([1]; PBLs, conc 0.1 μm): 0 | Hoechst 33342 nuclear staining score ([1]; PBLs, conc 1 μm): 0

COc1cc(C(=O)Cn2c(-c3nonc3N)nc3ccccc32)ccc1OCc1ccccc1 [Example 73]
IC50 (MRC5): 100 to 1000 nM | IC50 (HT1080): 100 to 1000 nM | IC50 (Jurkat): 100 to 1000 nM | IC50 (Jily): 100 to 1000 nM | IC50 (HeLa): 100 to 1000 nM | Hoechst 33342 nuclear staining score ([1]; H460, conc 0.01 μm): 0 | Hoechst 33342 nuclear staining score ([1]; H460, conc 0.1 μm): 0 | Hoechst 33342 nuclear staining score ([1]; H460, conc 1 μm): 2 (score 2 relating to strong activity comprising more than 70% of the cells) | Hoechst 33342 nuclear staining score ([1]; HeLa, conc 0.01 μm): 0 | Hoechst 33342 nuclear staining score ([1]; HeLa, conc 0.1 μm): 0 | Hoechst 33342 nuclear staining score ([1]; HeLa, conc 1 μm): 1 (1 relating to weak activity comprising less than 70% of the cells) | Hoechst 33342 nuclear staining score ([1]; Jily, conc 0.01 μm): 0 | Hoechst 33342 nuclear staining score ([1]; Jily, conc 0.1 μm): 0 | Hoechst 33342 nuclear staining score ([1]; Jily, conc 1 μm): 1 (1 relating to weak activity comprising less than 70% of the cells) | Hoechst 33342 nuclear staining score ([1]; Jurkat, conc 0.01 μm): 0 | Hoechst 33342 nuclear staining score ([1]; Jurkat, conc 0.1 μm): 0 | Hoechst 33342 nuclear staining score ([1]; Jurkat, conc 1 μm): 2 (score 2 relating to strong activity comprising more than 70% of the cells) | Hoechst 33342 nuclear staining score ([1]; MRC5, conc 0.01 μm): 0 | Hoechst 33342 nuclear staining score ([1]; MRC5, conc 0.1 μm): 0 | Hoechst 33342 nuclear staining score ([1]; MRC5, conc 1 μm): 1 (1 relating to weak activity comprising less than 70% of the cells) | Hoechst 33342 nuclear staining score ([1]; PBLs, conc 0.01 μm): 0 | Hoechst 33342 nuclear staining score ([1]; PBLs, conc 0.1 μm): 0 | Hoechst 33342 nuclear staining score ([1]; PBLs, conc 1 μm): 0

COc1cc(C(=O)Cn2c(-c3nonc3N)nc3ccccc32)ccc1O [Example 74, 4-[1-(3-Methoxy-4-hydroxyphenacyl)-1H-benzimidazol-2-yl]-furazan-3-yl-amine]
IC50 (MRC5; Homo sapiens): 100 to 1000 nM | IC50 (HT1080; Homo sapiens, HT-1080): 100 to 1000 nM | IC50 (Jurkat; Homo sapiens): 100 to 1000 nM | IC50 (Jily): 100 to 1000 nM | IC50 (HeLa; Homo sapiens): 100 to 1000 nM | Hoechst 33342 nuclear staining score ([1]; H460, conc 0.01 μm): 0 | Hoechst 33342 nuclear staining score ([1]; H460, conc 0.1 μm): 0 | Hoechst 33342 nuclear staining score ([1]; H460, conc 1 μm): 2 (score 2 relating to strong activity comprising more than 70% of the cells) | Hoechst 33342 nuclear staining score ([1]; HeLa, conc 0.01 μm): 0 | Hoechst 33342 nuclear staining score ([1]; HeLa, conc 0.1 μm): 0 | Hoechst 33342 nuclear staining score ([1]; HeLa, conc 1 μm): 2 (score 2 relating to strong activity comprising more than 70% of the cells) | Hoechst 33342 nuclear staining score ([1]; Jily, conc 0.01 μm): 0 | Hoechst 33342 nuclear staining score ([1]; Jily, conc 0.1 μm): 0 | Hoechst 33342 nuclear staining score ([1]; Jily, conc 1 μm): 2 (score 2 relating to strong activity comprising more than 70% of the cells) | Hoechst 33342 nuclear staining score ([1]; Jurkat, conc 0.01 μm): 0 | Hoechst 33342 nuclear staining score ([1]; Jurkat, conc 0.1 μm): 0 | Hoechst 33342 nuclear staining score ([1]; Jurkat, conc 1 μm): 2 (score 2 relating to strong activity comprising more than 70% of the cells) | Hoechst 33342 nuclear staining score ([1]; MRC5, conc 0.01 μm): 0 | Hoechst 33342 nuclear staining score ([1]; MRC5, conc 0.1 μm): 0 | Hoechst 33342 nuclear staining score ([1]; MRC5, conc 1 μm): 1 (1 relating to weak activity comprising less than 70% of the cells) | Hoechst 33342 nuclear staining score ([1]; PBLs, conc 0.01 μm): 0 | Hoechst 33342 nuclear staining score ([1]; PBLs, conc 0.1 μm): 0 | Hoechst 33342 nuclear staining score ([1]; PBLs, conc 1 μm): 0

COc1cc(C(=O)Cn2c(-c3nonc3N)nc3ccccc32)ccc1OC(C)=O [Example 75]
IC50 (MRC5): 100 to 1000 nM | IC50 (HT1080): 100 to 1000 nM | IC50 (Jurkat): 100 to 1000 nM | IC50 (Jily): 100 to 1000 nM | IC50 (HeLa): 100 to 1000 nM | Hoechst 33342 nuclear staining score ([1]; H460, conc 0.01 μm): 0 | Hoechst 33342 nuclear staining score ([1]; H460, conc 0.1 μm): 0 | Hoechst 33342 nuclear staining score ([1]; H460, conc 1 μm): 2 (score 2 relating to strong activity comprising more than 70% of the cells) | Hoechst 33342 nuclear staining score ([1]; HeLa, conc 0.01 μm): 0 | Hoechst 33342 nuclear staining score ([1]; HeLa, conc 0.1 μm): 0 | Hoechst 33342 nuclear staining score ([1]; HeLa, conc 1 μm): 1 (1 relating to weak activity comprising less than 70% of the cells) | Hoechst 33342 nuclear staining score ([1]; Jily, conc 0.01 μm): 0 | Hoechst 33342 nuclear staining score ([1]; Jily, conc 0.1 μm): 0 | Hoechst 33342 nuclear staining score ([1]; Jily, conc 1 μm): 2 (score 2 relating to strong activity comprising more than 70% of the cells) | Hoechst 33342 nuclear staining score ([1]; Jurkat, conc 0.01 μm): 0 | Hoechst 33342 nuclear staining score ([1]; Jurkat, conc 0.1 μm): 0 | Hoechst 33342 nuclear staining score ([1]; Jurkat, conc 1 μm): 2 (score 2 relating to strong activity comprising more than 70% of the cells) | Hoechst 33342 nuclear staining score ([1]; MRC5, conc 0.01 μm): 0 | Hoechst 33342 nuclear staining score ([1]; MRC5, conc 0.1 μm): 0 | Hoechst 33342 nuclear staining score ([1]; MRC5, conc 1 μm): 1 (1 relating to weak activity comprising less than 70% of the cells) | Hoechst 33342 nuclear staining score ([1]; PBLs, conc 0.01 μm): 0 | Hoechst 33342 nuclear staining score ([1]; PBLs, conc 0.1 μm): 0 | Hoechst 33342 nuclear staining score ([1]; PBLs, conc 1 μm): 0
